One may read the EC50 as the concentration giving half of the maximal effect.

Structures are written as SMILES.

Data on 3 compounds can be found in paper PMC7472048 (Viruses, 2020).

The test system of one data set is r3Can. The data set can be described thus: organism not typed. It is filed as cell-based, Junín virus (JUNV) Candid#1 strain. As to conditions: Vero, read-out: r3Can (Vero cell) EC50.
For the next data set, the system named is rLASV. The data set can be described thus: microbe, parasite or virus in culture. It is filed as cell-based, Lassa virus (LASV). As to conditions: Mammarenavirus lassaense, A549, read-out: rLASV (A549 cell) EC50.
Data set [1] can be described thus: in vitro. As to conditions: African green monkey (Chlorocebus aethiops).
Data set [2] is described as follows: in vitro. The note with it: human.
Data set [3] has as its system IFNB and ISG mRNA expression. It counts as cell-based, Homo sapiens.
A further data set has as its system r3Can/GFP. It is filed as cell-based, Junín virus (JUNV).
The next data set has as its system rLASV/GFP. It is filed as cell-based, Lassa virus (LASV).
The test system of a further data set is rLCMV/ZsG. Put plainly: microbe, parasite or virus in culture. It counts as cell-based, lymphocytic choriomeningitis virus (LCMV). The note with it: Mammarenavirus choriomeningitidis, A549, 48 h, read-out: rLCMV (A549 cell) EC50.
Another data set concerns LASV Z-mediated budding. It counts as cell-based, Lassa virus (LASV).
A further data set concerns rCL-13/ZsG. It is filed as cell-based, lymphocytic choriomeningitis virus (LCMV).
A further data set has as its system LCMV CL-13. Set-up: species or system C57BL/6 mice. As to conditions: mouse, in vivo, 150 mg/kg/day.
The subject of a further data set is influenza A virus. The note with it: mouse, in vivo; cited from earlier work.

For `Cc1c(-c2ccc(-c3ccccc3F)cc2)nc2ccc(F)cc2c1C(=O)O` [Brequinar], the EC50 in the data set on r3Can came out at 0.04 µM; in the data set on rLASV, 0.063 µM; with rLCMV/ZsG, 0.041 µM. In addition, the CC50 in the data set “in vitro [1]” came out at 47.2 µM; in the data set “in vitro [2]” it was 79 µM. Further, the “mRNA levels of IFNB and ISGs in LCMV-infected cells” value in data set [3] is on record as “significantly decreased”. Further, the “ISG15 and IFIT1 expression in non-infected A549 cells” value in data set [3] (5 µM, 48 h) is “moderately upregulated”. Moreover, the “expression of IFNB in non-infected A549 cells” value in [3] (5 µM, 48 h) is recorded as “Neither Cmp 1 nor brequinar treatment significantly affected”. Further, the r3Can/GFP propagation result in the data set with r3Can/GFP was “strongly inhibited”. In the data set on rLASV/GFP, the rLASV/GFP propagation result is “strongly inhibited”.
As to `COc1cccc(-c2ccc(NC(=O)C3=C(C(=O)O)CCC3)c(F)c2)c1` [Cmp 4, vidofludimus calcium], the EC50 came out at 1.68 µM with r3Can, 3.02 µM in the data set on rLASV and 1.28 µM in the data set on rLCMV/ZsG. Also, the “Z budding efficiency, ratio ZVLP:(ZVLP+ZWCL)” value in the data set with LASV Z-mediated budding is given as “very modest, but statistically significant, effect”. Further, the CC50 in “in vitro [1]” stood at 5.92 µM; in “in vitro [2]”, 54.4 µM. The “Cmp 4-induced antiviral effect with exogenous uridine” value in the data set on rCL-13/ZsG was “reverted”. Further, the “body weight loss and recovery versus vehicle control” value in the data set on LCMV CL-13 was “less body weight loss and faster recovery”. Further, in the data set with LCMV CL-13, the “viral load (serum virus titers)” value is “did not cause a significant reduction”.
As for `CCOc1ccc(-c2cc(C(=O)O)c3cc(Br)ccc3n2)cc1` [FA-613], the survival result in the data set with influenza A virus is reported as “increased survival”.
